# Measurements reported in article PMC8251347, “Crystal structure of the ferredoxin reductase component of carbazole 1,9a-dioxygenase from Janthinobacterium sp. J3” (Acta Crystallographica. Section D, Structural Biology, 2021).
# Molecular target: T1, CARDO-RJ3 (ferredoxin reductase component of carbazole 1,9a-dioxygenase) (Janthinobacterium sp. J3, UniProt Q84II0)
# T1 construct: gene carAd; full length, 329 residues, N-terminal His tag kept, expressed in E. coli (plasmid pEJ3NAd for the SeMet protein), monomer in solution; contains plant-type [2Fe-2S] cluster
# T1 sequence (Q84II0 1-329): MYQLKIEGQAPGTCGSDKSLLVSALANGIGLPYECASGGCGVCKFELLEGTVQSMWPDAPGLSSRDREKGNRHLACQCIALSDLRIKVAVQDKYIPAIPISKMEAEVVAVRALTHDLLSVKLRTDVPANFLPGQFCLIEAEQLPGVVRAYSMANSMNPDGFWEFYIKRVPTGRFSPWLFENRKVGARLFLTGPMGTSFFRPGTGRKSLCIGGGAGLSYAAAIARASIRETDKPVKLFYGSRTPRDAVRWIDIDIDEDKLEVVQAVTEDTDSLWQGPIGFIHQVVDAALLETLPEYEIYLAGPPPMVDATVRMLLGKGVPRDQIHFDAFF
# Test: X-ray crystallography, […] A (type I crystal)
# Conditions: FAD-binding domain site; Ser151, Tyr165, Lys167, Ser217 hydrogen bonds; Phe135 and Phe328 stacking; [2Fe-2S] cluster present; no NAD(P)H
smiles,measurement,value
Cc1cc2nc3c(=O)[nH]c(=O)nc-3n(C[C@H](O)[C@H](O)[C@H](O)COP(=O)(O)OP(=O)(O)OC[C@H]3O[C@@H](n4cnc5c(N)ncnc54)[C@H](O)[C@@H]3O)c2cc1C [FAD],"X-ray crystallography, 2.6 A (type I crystal)",The type I structure contained the [2Fe-2S] cluster and FAD
